According to EP4806427A2, “TOPICAL PHARMACEUTICAL COMPOSITIONS” (priority 2015, dated 2016):

How the values were obtained:
[1] = Solubility of the active ingredient in different solvents; assay type: physicochemical
Method: The solubility of the active ingredient in different solvents was determined. […] The following formulations were prepared with 5%, 10%, 15% and 20% MCT (Formulations 15-18). Two formulations (Formulations 19 and 20) were also prepared where Polawax (a proprietary blend of cetostearyl alcohol and emulsifiers) was replaced with cetostearyl alcohol and additional emulsifier.

AhR pathway = assay: Target profiling; assay type: cell-based; settings: intestinal human colon adenocarcinoma
[2] = 28 day twice daily topical administration: toxicokinetics, skin concentrations, dermal irritancy and toxicity; assay type: in vivo, Göttingen minipigs
Method: Following dose application on each dosing day, the dose sites were semi-occluded for approximately 20 ± 1 hours from the first dose and then gently washed before the next dose was applied.

AhR target gene, cyp1a1 = assay: Expression of AhR target gene in keratinocytes and leukocytes; assay type: cell-based; settings: primary human keratinocytes, and human or rodent leukocytes
[3] = Gao et al. 2011; cited from earlier work
[4] = minipig, topical or ocular, 60 mg/kg/day

CC(C)c1c(O)cc(/C=C/c2ccccc2)cc1O [3,5-Dihydroxy-4-isopropyl-trans-stilbene]
solubility ([1]; in medium chain triglycerides (MCT)): good solubility | solubility ([1]; in water): not soluble in water | effect on the AhR pathway (AhR pathway): activator | No Observed Adverse Effect Level (NOAEL) for dermal irritation or systemic toxicity ([2]; 28 days, twice daily topical, ~10% of total body surface area, highest dose tested): 3 % (w/w) | Cmax Day 28 ([2]; Male, 60 mg/kg/day, 40320 min): 0.845 ng/mL | dermal irritation and systemic toxicity ([2]; minipig, in vivo): no dermal irritation or systemic toxicity | gender-averaged skin concentration at necropsy, epidermis/upper dermis [2, 4]: 8265 ng/g | gender-averaged skin concentration at necropsy, lower dermis [2, 4]: 1830 ng/g | expression of the AhR target gene, cyp1a1 (AhR target gene, cyp1a1): induce the expression | sensitivity to oxidation and photo degradation [3]: sensitive to oxidation and photo degradation
